Experimental data reported in patent US10976310B2, “Ligand identification by co-fractionation” (MAX-PLANCK-GESELLSCHAFT ZUR FÖRDERUNG DER WISSENSCHAFTEN …, priority 2016, dated 2021).
Several values for one entry are separate records, joined by “and”; a condition that tells them apart may be missing. Identical values can stand only once.

Biological target: T1, Rbp47b (Arabidopsis thaliana, UniProt Q0WW84)
T1 sequence (Q0WW84 1-435): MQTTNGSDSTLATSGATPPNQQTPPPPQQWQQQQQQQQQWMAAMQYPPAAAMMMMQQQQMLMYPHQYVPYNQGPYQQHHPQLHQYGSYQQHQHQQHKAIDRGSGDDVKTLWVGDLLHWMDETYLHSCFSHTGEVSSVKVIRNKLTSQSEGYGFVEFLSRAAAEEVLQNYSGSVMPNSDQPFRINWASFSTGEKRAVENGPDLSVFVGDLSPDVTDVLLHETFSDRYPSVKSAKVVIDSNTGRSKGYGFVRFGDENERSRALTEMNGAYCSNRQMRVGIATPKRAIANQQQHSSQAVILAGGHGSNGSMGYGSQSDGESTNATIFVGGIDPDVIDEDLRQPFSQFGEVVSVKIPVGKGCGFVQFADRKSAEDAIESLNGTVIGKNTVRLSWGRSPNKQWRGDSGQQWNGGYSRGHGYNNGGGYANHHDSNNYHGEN
Assay: MST measurement of ligand binding to recombinant Rbp47b
Conditions: His6-Rbp47b from E. coli, n=3
Source text: We therefore attempted to determine the in vitro binding affinity biophysically using micro-scale thermophoresis (MST) (Jerabek-Willemsen et al. (2011) Molecular interaction studies using microscale thermophoresis. Assay Drug Dev Technol 9: 342-353). MST exploits the effect of size, charge, and hydration shell on the movement of molecules in a temperature gradient. Complex formation resulting in alteration of at least one of the three parameters leads to differential movement, from which the binding affinity can be determined. For the purpose of the MST experiment, Rbp47b was expressed in and purified from E. coli. […] The measured Kd value also corresponds to the ˜20 μM concentration of 2′,3′-cAMP measured in the native Arabidopsis lysate (FIG. 11B).
TIA1 protein was purchased from Origene (Herford, Germany). Rbp47b was cloned as a C-terminal GFP fusion (to increase protein solubility) into the E. coli expression vector pDEST14 containing His6-tag at the N-terminal of the Gateway (Karlsruhe, Germany) cassette. […]
Next day, cells were disrupted with an Avestin (Mannheim, Germany) EmulsiFlex C3 homogenizer and the protein was purified using imidazole-gradient purification in Ni-NTA agarose (Qiagen 34080, Hilden, Germany). […] Protein purity was assessed by SDS-PAGE and protein identification was done using western blot using anti-His6 antibodies. […]

SMILES: Nc1ncnc2c1ncn2[C@@H]1O[C@H](CO)[C@H]2OP(=O)(O)O[C@H]21 [2′,3′-cAMP]
- Kd: 1020 nM and 1000 nM
